Experimental data as given in ChEMBL document CHEMBL1144193, “Design, synthesis, and evaluation of novel aryl-tetrahydropyridine PPARalpha/gamma dual agonists” (Bioorg Med Chem Lett, 2008).
≈ marks a conversion by molar mass, not a printed value. Each block holds one compound with its values, some of them ahead of it.

How the values were obtained:
[1] = target: T1, Peroxisome proliferator-activated receptor alpha (Homo sapiens, UniProt Q07869); assay: Agonist activity at human PPARalpha expressed in african green monkey CV-1 by co-transfected with GAL4 by dual-glo luciferase reporter gene assay; type: functional
T1 sequence (Q07869 whole entry): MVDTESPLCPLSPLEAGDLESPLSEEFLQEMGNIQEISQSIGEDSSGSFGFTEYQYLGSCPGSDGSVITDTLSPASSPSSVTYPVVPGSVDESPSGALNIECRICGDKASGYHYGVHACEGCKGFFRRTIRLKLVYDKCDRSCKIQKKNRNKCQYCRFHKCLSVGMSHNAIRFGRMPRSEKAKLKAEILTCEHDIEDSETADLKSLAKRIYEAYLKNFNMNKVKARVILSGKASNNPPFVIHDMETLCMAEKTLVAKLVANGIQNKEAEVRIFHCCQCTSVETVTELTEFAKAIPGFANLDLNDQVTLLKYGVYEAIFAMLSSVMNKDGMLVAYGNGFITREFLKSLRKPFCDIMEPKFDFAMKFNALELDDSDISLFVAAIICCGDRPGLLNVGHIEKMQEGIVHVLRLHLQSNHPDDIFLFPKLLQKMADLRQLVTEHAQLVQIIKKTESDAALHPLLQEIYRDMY

[2] = target: T2, Peroxisome proliferator-activated receptor gamma (Homo sapiens, UniProt P37231)
T2 sequence (P37231 whole entry): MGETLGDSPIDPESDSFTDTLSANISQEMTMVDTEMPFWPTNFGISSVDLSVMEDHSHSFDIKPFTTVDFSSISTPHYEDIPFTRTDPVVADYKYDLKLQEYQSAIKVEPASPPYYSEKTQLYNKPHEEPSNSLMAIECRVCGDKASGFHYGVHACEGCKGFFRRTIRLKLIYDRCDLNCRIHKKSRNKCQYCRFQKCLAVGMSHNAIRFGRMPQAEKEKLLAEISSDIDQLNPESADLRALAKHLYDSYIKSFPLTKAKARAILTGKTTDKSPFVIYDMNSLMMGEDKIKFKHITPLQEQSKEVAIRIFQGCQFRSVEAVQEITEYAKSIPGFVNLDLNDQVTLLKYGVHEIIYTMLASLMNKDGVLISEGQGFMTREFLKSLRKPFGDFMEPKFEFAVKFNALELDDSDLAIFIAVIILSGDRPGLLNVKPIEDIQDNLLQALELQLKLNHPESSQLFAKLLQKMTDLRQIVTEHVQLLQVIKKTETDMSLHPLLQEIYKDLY
Description: Agonist activity at human PPARgamma expressed in african green monkey CV-1 co-transfected with GAL4 by dual-glo luciferase reporter gene assay

[3] = Volume of distribution at steady state in Sprague-Dawley rat at 3 mg/kg, iv; settings: in vivo
[4] = Oral bioavailability in Sprague-Dawley rat at 3 mg/kg; type: ADME, organism-based; settings: in vivo
[5] = tested on: Mus musculus; assay: Antihyperglycemic activity in db/db mouse assessed as increase in body weight at 0.03 mg/kg, po once daily after 28 days; type: functional
[6] = tested on: Mus musculus; assay: Antihyperglycemic activity in db/db mouse assessed as increase in body weight at 1 mg/kg, po once daily after 28 days; type: functional
[7] = tested on: Mus musculus; assay: Antihyperglycemic activity in db/db mouse assessed as reduction in plasma glucose level at 0.03 mg/kg, po once daily after 28 days relative to non-fasting control; type: functional; parameters: scale not given: the % may be the effect or the level left
[8] = Solubility at pH 6.8; type: physicochemical; settings: buffer
[9] = Cmax in Sprague-Dawley rat at 3 mg/kg, po; type: ADME, organism-based; parameters: dose 3 mg/kg, route oral; settings: in vivo
[10] = tested on: Mus musculus; assay: Antihyperglycemic activity in db/db mouse assessed as reduction in plasma glucose level at 1 mg/kg, po once daily after 28 days relative to non-fasting control; type: functional; parameters: scale not given: the % may be the effect or the level left
[11] = Tmax in Sprague-Dawley rat at 3 mg/kg, po; type: ADME, organism-based; parameters: dose 3 mg/kg, route oral; settings: in vivo
[12] = tested on: Mus musculus; assay: Antihyperglycemic activity in db/db mouse assessed as increase in body weight at 0.1 mg/kg, po once daily after 28 days; type: functional
[13] = tested on: Mus musculus; assay: Antihyperglycemic activity in po dosed db/db mouse assessed as reduction in glucose level after 28 days; type: functional; settings: 672 h
[14] = tested on: Mus musculus; assay: Antihyperglycemic activity in db/db mouse assessed as reduction in plasma glucose level at 0.1 mg/kg, po once daily after 28 days relative to non-fasting control; type: functional; parameters: scale not given: the % may be the effect or the level left
[15] = AUC (0 to 24 hrs) in Sprague-Dawley rat at 3 mg/kg, iv; type: ADME, organism-based; parameters: time < 24 hr, dose 3 mg/kg, route intravenous; settings: plasma
[16] = AUC (0 to 24 hrs) in Sprague-Dawley rat at 3 mg/kg, po; type: ADME, organism-based; parameters: time < 24 hr, dose 3 mg/kg, route oral; settings: plasma
[17] = Clearance in Sprague-Dawley rat at 3 mg/kg, iv; type: ADME, organism-based; parameters: dose 3 mg/kg, route intravenous; settings: in vivo
[18] = Half life in Sprague-Dawley rat at 3 mg/kg, iv; type: ADME, organism-based; parameters: dose 3 mg/kg, route intravenous; settings: in vivo
[19] = tested on: Mus musculus; assay: Antihyperglycemic activity in db/db mouse assessed as increase in body weight at 0.3 mg/kg, po once daily after 28 days; type: functional
[20] = tested on: Mus musculus; assay: Antihyperglycemic activity in db/db mouse assessed as reduction in plasma glucose level at 0.3 mg/kg, po once daily after 28 days relative to non-fasting control; type: functional; parameters: scale not given: the % may be the effect or the level left
[21] = tested on: Mus musculus; assay: Antihyperglycemic activity in db/db mouse assessed as reduction in plasma glucose level at 3 mg/kg, po once daily after 28 days relative to non-fasting control; parameters: scale not given: the % may be the effect or the level left
[22] = tested on: Mus musculus; assay: Antihyperglycemic activity in db/db mouse assessed as increase in body weight at 3 mg/kg, po once daily after 28 days

Compound: CCOC(Cc1ccc(OCCN2CC=C(c3ccc(C(F)(F)F)cc3)CC2)cc1)C(=O)O (stereo not drawn)
EC50 [1]: 3400 nM
EC50 [2]: 1890 nM

Compound: CCOC(Cc1ccc(OCCN2CC=C(c3ccc(F)cc3)CC2)cc1)C(=O)O (stereo not drawn)
EC50 [1]: 2230 nM
EC50 [2]: 3720 nM

Compound: CCOC(Cc1ccc(OCCN2CC=C(c3cccc(Cl)c3)CC2)cc1)C(=O)O (stereo not drawn)
EC50 [1]: 3240 nM
EC50 [2]: 1670 nM

Compound: CCOC(Cc1ccc(OCCN2CC=C(c3ncccn3)CC2)cc1)C(=O)O (stereo not drawn)
EC50 [1]: 7670 nM
EC50 [2]: 4600 nM

Compound: CC(C)(Oc1cccc(OCCN2CC=C(c3ccc(Cl)cc3)CC2)c1)C(=O)O
EC50 [1]: 331 nM
EC50 [2]: 18800 nM

EC50 [1]: 3120 nM
EC50 [2]: 704 nM
Compound: CCO[C@@H](Cc1ccc(OCCc2ccc(OS(C)(=O)=O)cc2)cc1)C(=O)O [TESAGLITAZAR]

Compound: CCOC(Cc1ccc(OCCN2CC=C(c3ccccc3C(F)(F)F)CC2)cc1)C(=O)O (stereo not drawn)
EC50 [1]: 542 nM
EC50 [2]: 7560 nM

Compound: CCOC(Cc1ccc(OCCN2CC=C(c3ccc(Cl)cc3Cl)CC2)cc1)C(=O)O (stereo not drawn)
EC50 [1]: 1120 nM
EC50 [2]: 706 nM

Compound: CCOC(Cc1ccc(OCCN2CC=C(c3cccs3)CC2)cc1)C(=O)O (stereo not drawn)
EC50 [1]: 8580 nM
EC50 [2]: 3300 nM

Compound: CCCc1ccc(C2=CCN(CCOc3ccc(CC(OCC)C(=O)O)cc3)CC2)cc1 (stereo not drawn)
EC50 [1]: 2080 nM
EC50 [2]: 174 nM

Compound: CCOC(Cc1ccc(OCCN2CC=C(c3ccc(Cl)cc3)CC2)cc1)C(=O)O (stereo not drawn)
EC50 [1]: 7070 nM
EC50 [2]: 2060 nM

Compound: CCOC(Cc1ccc(OCCN2CC=C(c3ccccc3Cl)CC2)cc1)C(=O)O (stereo not drawn)
EC50 [1]: 7720 nM
EC50 [2]: 5830 nM

Compound: CCO[C@@H](Cc1ccc(OCCN2CC=C(c3ccc(Cl)c(Cl)c3)CC2)cc1)C(=O)O
EC50 [1]: 615 nM
EC50 [2]: 862 nM

Compound: CCOC(Cc1ccc(OCCN2CC=C(c3ccc(OC)cc3)CC2)cc1)C(=O)O (stereo not drawn)
EC50 [1]: 11300 nM
EC50 [2]: 396 nM

Compound: CCO[C@@H](Cc1ccc(OCCN2CC=C(c3ccc(Cl)cc3)CC2)cc1)C(=O)O
EC50 [1]: 1730 nM
Vd [3]: 0.44 L/kg
bioavailability [4]: > 100%
Activity [5]: 11.2 g
Activity [6]: 13.7 g
Activity [7]: 14%
solubility [8]: 3260 µg/mL (≈ 7590 µM)
Cmax [9]: 15.9 µM
EC50 [2]: 639 nM
Activity [10]: 77%
Tmax [11]: 30 min
Activity [12]: 12.4 g
ED30 [13]: 0.067 mg/kg
Activity [14]: 37%
AUC(0-t) at 24 h [15]: 272 µM·h
AUC(0-t) at 24 h [16]: 270 µM·h
clearance [17]: 0.23 mL/min/kg
half-life [18]: 1380 min
Activity [19]: 12.6 g
Activity [20]: 63%

Compound: CCOC(Cc1ccc(OCCN2CC=C(c3ccccc3)CC2)cc1)C(=O)O (stereo not drawn)
EC50 [1]: 5980 nM
EC50 [2]: 2150 nM

Compound: CCOC(Cc1ccc(OCCCN2CC=C(c3ccc(Cl)cc3)CC2)cc1)C(=O)O (stereo not drawn)
EC50 [1]: 9800 nM
EC50 [2]: 2320 nM

Compound: CCOC(Cc1ccc(OCCN2CC=C(c3ccccn3)CC2)cc1)C(=O)O (stereo not drawn)
EC50 [1]: 10200 nM
EC50 [2]: 2300 nM

Compound: CCOC(Cc1ccc(OCCN2CC=C(c3cnccn3)CC2)cc1)C(=O)O (stereo not drawn)
EC50 [1]: 3670 nM
EC50 [2]: 12600 nM

Compound: CCOC(Cc1ccc(OCCN2CC=C(c3cc(Cl)cc(Cl)c3)CC2)cc1)C(=O)O (stereo not drawn)
EC50 [1]: 2990 nM
EC50 [2]: 1420 nM

Compound: CCOC(Cc1ccc(OCCN2CC=C(c3ccccc3OC)CC2)cc1)C(=O)O (stereo not drawn)
EC50 [1]: 18100 nM
EC50 [2]: 3930 nM

Compound: CCOC(Cc1ccc(OCCN2CC=C(c3ccc(CC)cc3)CC2)cc1)C(=O)O (stereo not drawn)
EC50 [1]: 7580 nM
EC50 [2]: 689 nM

Compound: CCOC(Cc1ccc(OCCN2CC=C(c3cccc(Cl)c3Cl)CC2)cc1)C(=O)O (stereo not drawn)
EC50 [1]: 64 nM
EC50 [2]: 661 nM

Compound: CCOC(Cc1ccc(OCCN2CC=C(c3cccc(C(F)(F)F)c3)CC2)cc1)C(=O)O (stereo not drawn)
EC50 [1]: 3120 nM
EC50 [2]: 2230 nM

Compound: CCOC(Cc1ccc(OCCN2CC=C(c3ccc(Cl)c(Cl)c3)CC2)cc1)C(=O)O (stereo not drawn)
EC50 [1]: 1150 nM
EC50 [2]: 670 nM

Compound: CCOC(Cc1ccc(OCCN2CC=C(c3cccc(OC)c3)CC2)cc1)C(=O)O (stereo not drawn)
EC50 [1]: 17300 nM
EC50 [2]: 2380 nM

Compound: CCOC(Cc1ccc(OCCN2CC=C(c3cc(Cl)ccc3Cl)CC2)cc1)C(=O)O (stereo not drawn)
EC50 [1]: 1120 nM
EC50 [2]: 1440 nM

Compound: CC(C)(Oc1ccc(OCCN2CC=C(c3ccc(Cl)cc3)CC2)cc1)C(=O)O
EC50 [1]: 868 nM
EC50 [2]: 22800 nM

Compound: CCOC(Cc1ccc(OCCCN2CC=C(c3ccc(C(F)(F)F)cc3)CC2)cc1)C(=O)O (stereo not drawn)
EC50 [1]: 9790 nM
EC50 [2]: 504 nM

Compound: COc1ccc(OC(=O)N(CC(=O)O)Cc2ccc(OCCc3nc(-c4ccccc4)oc3C)cc2)cc1 [MURAGLITAZAR]
EC50 [1]: 4110 nM
Vd [3]: 0.57 L/kg
bioavailability [4]: 96.2%
Activity [6]: 14.5 g
solubility [8]: 41 µg/mL (≈ 79.4 µM)
Cmax [9]: 25.8 µM
Activity [21]: 78%
Activity [10]: 54%
Tmax [11]: 34.8 min
Activity [12]: 10.5 g
ED30 [13]: 0.411 mg/kg
Activity [14]: 4%
AUC(0-t) at 24 h [15]: 101 µM·h
AUC(0-t) at 24 h [16]: 98.8 µM·h
clearance [17]: 0.73 mL/min/kg
Activity [22]: 16.1 g
half-life [18]: 840 min
Activity [19]: 12.7 g
Activity [20]: 11%

EC50 [1]: 25500 nM
EC50 [2]: 4880 nM
Compound: CC(Cc1ccc(OCCN2CC=C(c3ccc(Cl)cc3)CC2)cc1)(Oc1ccccc1)C(=O)O (stereo not drawn)

Compound: CCC(Cc1ccc(OCCN2CC=C(c3ccc(Cl)cc3)CC2)cc1)C(=O)O (stereo not drawn)
EC50 [1]: 3860 nM
EC50 [2]: 5290 nM

Compound: CCOC(Cc1ccc(OCCCN2CC=C(c3ccc(Cl)c(Cl)c3)CC2)cc1)C(=O)O (stereo not drawn)
EC50 [1]: 1700 nM
EC50 [2]: 728 nM

Compound: CN(CCOc1ccc(CC2SC(=O)NC2=O)cc1)c1ccccn1 (stereo not drawn) [ROSIGLITAZONE]
bioavailability [4]: > 100%
Activity [6]: 12.5 g
solubility [8]: 14 µg/mL (≈ 39.2 µM)
Cmax [9]: 44.3 µM
Activity [21]: 68%
Activity [10]: 56%
Tmax [11]: 15 min
Activity [12]: 10.5 g
ED30 [13]: 0.21 mg/kg
Activity [14]: 17%
AUC(0-t) at 24 h [15]: 53.7 µM·h
AUC(0-t) at 24 h [16]: 94.2 µM·h
clearance [17]: 2.99 mL/min/kg
Activity [22]: 13.9 g
half-life [18]: 63 min
Activity [19]: 11.1 g
Activity [20]: 37%
